Assay results published in patent publication US20200029601A1, “PHENYLACRYLIC ACID SOLUTION FOR BROAD SPECTRUM ANTIMICROBIAL APPLICATIONS FOR FOODSTUFFS” (KLF LABS LLC, priority 2018, published 2020).
Like-named read-outs stand apart in the source and are kept apart here.

Key:
[1] = system: Listeria monocytogenes; settings: 1000 ppm, pH 4.0
Text: (§1) To determine ascertain bactericidal and fungicidal qualities of the present food preservative solution, certain embodiments containing a combination of phenylacrylic acid, sorbic acid, a potentiation agent and a stabilization agent were subjected to a modified version of the United States Pharmocopedia (USP) antimicrobial efficacy test found in chapter 51 of the USP 40 manual. All embodiments were between pH 3.95-4.05.
(§2) To each of the embodiments, 1×10^6 cells from the following spoilage organisms; Escheria coli, Listeria monocytogenes, Salmonella entericia, Aspergillus flavus, Aspergillus brasiliensis, and Zygosaccharomyces bailii. The microbials were homogeneously dispersed in the various embodiments. Small aliquots are taken from the inoculated samples at the appropriate time point is serial diluted and plated. The plates are incubated, and growth is then enumerated. The counts are multiplied by the appropriate dilution factor to give a viable cell count at that time point.

[2] = system: Aspergillus flavus; settings: 1000 ppm, pH 4.0
Text: as §1, §2

[3] = system: Zygosaccharomyces bailii; settings: 1000 ppm, pH 4.0
Text: as §1, §2

[4] = system: Salmonella entericia; settings: 1000 ppm, pH 4.0
Text: as §1, §2

[5] = system: Escheria coli; settings: 1000 ppm, pH 4.0
Text: as §1, §2

[6] = system: Aspergillus brasiliensis; settings: 1000 ppm, pH 4.0
Text: as §1, §2

[7] = system: Saccharomyces cerevisiae; experiment: Yeast growth in sterile model beverage (Experimental Test 5); format: cell-based; settings: 300 ppm; model beverage at 4° C.; 72 hours
Protocol: Application experiments were set up using a model beverage. The formulations were tested against Saccharomyces cerevisiae, a yeast well recognized for its beverage spoiling quality. A sterile model beverage was prepared using the formulation indicated in Table 19, with an initial inoculation quantity of 10^4 cells/mL of beverage. […] The OD 660 of each sample was measured 72 hours after initial inoculation using an 8543 Spectrophotometer and the data was compiled using excel, as depicted in Table 20.

CC=CC=CC(=O)O [Sorbic Acid, 2,4 hexadienoic acid]
Microbial plate count ([1]; Test Day 0): 620000 CFU/g | Microbial plate count ([1]; Test Day 0.5): <10 CFU/g | Microbial plate count ([1]; Test Day 1): <10 CFU/g | Microbial plate count ([1]; Test Day 3): <10 CFU/g | Microbial plate count ([1]; Test Day 7): <10 CFU/g | Microbial plate count ([2]; Test Day 0): 510000 CFU/g | Microbial plate count ([2]; Test Day 0.5): 8500 CFU/g | Microbial plate count ([2]; Test Day 1): <10 CFU/g | Microbial plate count ([2]; Test Day 3): <10 CFU/g | Microbial plate count ([2]; Test Day 7): <10 CFU/g | Microbial plate count ([3]; Test Day 0): 480000 CFU/g | Microbial plate count ([3]; Test Day 0.5): 130000 CFU/g | Microbial plate count ([3]; Test Day 1): 1600 CFU/g | Microbial plate count ([3]; Test Day 3): 120 CFU/g | Microbial plate count ([3]; Test Day 7): <10 CFU/g | Microbial plate count ([4]; Test Day 0): 800000 CFU/g | Microbial plate count ([4]; Test Day 0.5): <10 CFU/g | Microbial plate count ([4]; Test Day 1): <10 CFU/g | Microbial plate count ([4]; Test Day 3): <10 CFU/g | Microbial plate count ([4]; Test Day 7): <10 CFU/g | Microbial plate count ([5]; Test Day 0): 580000 CFU/g | Microbial plate count ([5]; Test Day 0.5): <10 CFU/g | Microbial plate count ([5]; Test Day 1): <10 CFU/g | Microbial plate count ([5]; Test Day 3): <10 CFU/g | Microbial plate count ([5]; Test Day 7): <10 CFU/g | Microbial plate count ([6]; Test Day 0): 630000 CFU/g | Microbial plate count ([6]; Test Day 0.5): 230000 CFU/g | Microbial plate count ([6]; Test Day 1): 520 CFU/g | Microbial plate count ([6]; Test Day 3): <10 CFU/g | Microbial plate count ([6]; Test Day 7): <10 CFU/g

O=C(O)C=Cc1ccccc1 [Phenylacrylic Acid, 3-phenyl-2-propenoic acid]
OD 660 nm [7]: 0.51
